# Test results: patent US20120225118A1, “COMPOSITIONS FOR DELIVERY OF INSOLUBLE AGENTS” (Latitude Pharmaceuticals Incorporated, priority 2009, published 2012)
# Like-named read-outs stand apart in the source and are kept apart here.
# Columns and labels:
# [1] = 25° C., cited from earlier work
# [2] = Solubility in aqueous 0.2% SDS; assay type: physicochemical; details: 37 °C, aqueous with cosolvent or surfactant or cyclodextrin, thermodynamic from solid
# Method: About 5.5 mg itraconazole or an amount of the preparations obtained according to Example 3 containing 5.5 mg itraconazole was placed in 500 mL aqueous solution of 0.2% SDS. The mixture was stirred at 37° C. for 24 hours. About 5 mL of the solution was taken and filtered through a 0.45 μm filter. The filtrate was analyzed by HPLC for concentration of itraconazole.
solubility at 24 h [2],SMILES,volume of solvent required to dissolve 1 gram ([1]; ethanol),volume of solvent required to dissolve 1 gram ([1]; water)
–,CC(=O)Oc1ccccc1C(=O)O [aspirin],5 mL,300 mL
6.44 ± 0.08 µg/mL,CCC(C)n1ncn(-c2ccc(N3CCN(c4ccc(OCC5COC(Cn6cncn6)(c6ccc(Cl)cc6Cl)O5)cc4)CC3)cc2)c1=O (stereo not drawn) [itraconazole],–,–
